Results from patent US8420307B2, “Sperm cryoprotective media” (The Jackson Laboratory, priority 2006, dated 2013).

Legend:
[1] = system: reactive oxygen species within cryopreserved mouse sperm; test: Intracellular reactive oxygen species by CM-H2DCFDA dye and flow cytometry after tert-butyl hydroperoxide challenge; type: cell-based; details: for level of reactive oxygen species within cryopreserved mouse sperm (relative fluorescence): C57BL/6 sperm, diluted 1:1 with solution supplemented with 954 mM MTG, 1 mM GSH or 2 mM DTT before freezing, FIGS. 7A and 7B
Procedure: Sperm cryopreserved in the presence and absence of the free radical scavenger, the reducing agent monothioglycerol (MTG), are loaded with the green fluorescent dye CM-H2DCFDA to measure intracellular reactive oxygen species. The sperm are challenged with varying levels of Tert-Butylhydrogen peroxide to induce oxidative damage and green fluorescence is measured using flow cytometry.
For example, the capability to reduce ROS can be tested by a dye/sperm method as described in Example 4 and also see publications by Nelid et al 2006 and Guthrie and Welch 2006. Either fresh or cryopreserved sperm can be used in this assay. For example, sperm collected from the vas deferens and epididymis of two C57BL/6J mice into 1 mL of a solution containing 3% skim milk (w/v; BD Diagnostics; cat #232100) and 18% raffinose (w/v; Sigma; cat #R7630). A fraction of the collected sperm was diluted 1:1 in the same skim milk raffinose solution while another fraction was diluted 1:1 using the skim milk raffinose solution supplemented with […] monothioglycerol (MTG; Sigma Aldrich; cat #M6145). Another set of C57BL/6J males was used to collect sperm and dilute in the skim milk raffinose solution with 1 mM glutathione (GSH; Sigma Aldrich; cat #G6013) or 2 mM dithiothreitol (DTT; Sigma Aldrich; cat #646563). The sperm was cryopreserved as described in Example 1 and stored in liquid nitrogen for at least 24 hours.
To determine if MTG, GSH or DTT can act as a free radical scavenger, the sperm were thawed and loaded with the green fluorescent dye 5-(and-6)-chloromethyl-2′,7′-dichlorodihydrofluorescein diacetate (CM-H2DCFDA; Invitrogen C6827). This dye is a cell-permeant indicator for reactive oxygen species that is nonfluorescent until removal of the acetate groups by intracellular esterases and oxidation occurs within the cell. The emission of fluorescence correlates with ROS generation as a result of DCFH oxidation. To load the sperm, at least 150 μL of sperm were thawed and diluted 1:1 in a sperm incubation media described by Bath et al. ((Bath 2003); 123 mM NaCl; 4.7 mM KCl; 0.2 mM MgSO4.7H2O; 10 mM;NaHCO3 21 mM HEPES; 0.33 mM sodium pyruvate; 4.6 mM glucose; 100 IU/mL penicillin G; 1.33 mg/mL BSA). The lyophilized dye was resuspended in dimethylsulfoxide to a concentration of 432.5 μM and then added to the cells, such that the final dye concentration was 40 μM. […] The samples were loaded onto either a FACScan (BD Biosciences; Franklin Lakes, N.J.) or FACSCalibur (BD Biosciences; Franklin Lakes, N.J.) flow cytometer and the green fluorescence was measured on at about 5,000 viable sperm. […]

C57BL/6 Sperm = test: Post-thaw motility of mouse sperm (IVOS computerized semen analysis); type: cell-based; details: for IVF Fit: motility of at least 5% is required to achieve fertilization in IVF
Procedure: To determine the concentration, motility, and progressive motility of “freshly-collected” sperm, the sperm is typically diluted 1:20 in either phosphate buffered saline or Cooks Mouse Vitro Fert (Cook Australia; Queensland, Australia; (Quinn et al., 1995)). To assess thawed sperm, sperm is incubated in IVF medium for an hour, at a dilution of 1:50 in the IVF drop. It is then loaded into a Hamilton Thom IVOS computerized semen analyzer (Hamilton Thom, Beverly, Mass.). For measurement, the calibration parameters are set as follows: • Apply Sort: 2 • Frames acquired: 30 • Frame rate: 60 Hz • Minimum contrast: 30 • Minimum Cell Size: 4 pixels • Minimum Static Contrast: 15 • Straightness (STR), Threshold: 50% • Low VAP Cutoff: 10.0 μm/s • Medium VAP Cutoff: 50.0 μmis • Low VSL Cutoff: 0.0 grids • Head Size, Non-Motile: 13 pixels • Head Intensity, Non-Motile: 75 • Static Head Size: 0.57 to 2.91 • Static Head Intensity: 0.14 to 1.84 • Static Elongation: 0 to 87 • Slow Cells Motile: YES • Magnification: 0.82 • Video Source Camera • Video Frequency: 60 • Bright Field No • Brightness for LED: 2663 • Brightness for Ident: 3000 • Temperature, Set: 37° C.
If the compound is capable of reducing ROS at the tested concentration, then its effect on sperm motility and fertilization is tested. While the sperm motility assay is a helpful fast screening tool in the case of mouse, this assay is not required for mouse and one can perform only the IVF assay in the case of mouse. For other species, e.g. bovine, the sperm motility assay together with the fluorescence assay is sufficient. The sperm motility assay can be done either with fresh or cryopreserved sperm. For example, the motility can be determined as described in Example 6 (Determination of Sperm Concentration and Motility), using an IVOS instrument. Briefly, C57BL/6 sperm were diluted 1:50 in pre-warmed and gassed mouse vitro fert (Cook's; Spencer, Ind.) under light mineral oil. The samples were incubated for an hour at 37° C., in a humidified atmosphere of 5% CO2, 5% O2 and 90% nitrogen in a K-MINC-1000 bench top incubator (Cook's; Spencer, Ind.). After incubation, the sperm were drawn into 0.1×2.0 mm I.D. tubes (VitroCom Inc. Mt Lks. N.J.) using capillary action and 3 manually selected fields per sample were analyzed for motility using the Hamilton Thorn (Beverly, Mass.) integrated visual optics system (IVOS) for computerized semen analysis. Applicants have shown that sperm frozen in CPM containing no free radical scavenger, 0.477 mM MTG, 0.1 mM DTT, 1 mM DTT, 5 mM DTT, 20 mM DTT, 0.5 mM GSH, 1 mM GSH, 5 mM GSH or 50 mM GSH can be assessed for motility and that motility of at least 5% is required to achieve fertilization in IVF.

[2] = C57BL/6 sperm frozen in CPM containing 1 mM free radical scavenger
[3] = C57BL/6 sperm frozen in CPM containing 5 mM free radical scavenger

SMILES	level of reactive oxygen species within cryopreserved mouse sperm (relative fluorescence) [1]	IVF Fit (C57BL/6 Sperm; 0.5 mM)	IVF Fit (C57BL/6 Sperm; 1 mM)	IVF Fit (C57BL/6 Sperm; 5 mM)	IVF Fit (C57BL/6 Sperm; 50 mM)	Average Post Thaw Motility (C57BL/6 Sperm; C57BL/6 sperm frozen in CPM containing 0.5 mM free radical scavenger) [%]	Average Post Thaw Motility (C57BL/6 Sperm; [2]) [%]	Average Post Thaw Motility (C57BL/6 Sperm; [3]) [%]	Average Post Thaw Motility (C57BL/6 Sperm; C57BL/6 sperm frozen in CPM containing 50 mM free radical scavenger) [%]	ROS in cryopreserved sperm (green fluorescence) ([1]; sperm from C57BL/6J (B6) and BALB/cByJ (BALB/cBy) mice, FIG. 3)	IVF Fit (C57BL/6 Sperm; 0.477 mM)	Average Post Thaw Motility (C57BL/6 Sperm; C57BL/6 sperm frozen in CPM containing 0.477 mM free radical scavenger) [%]	IVF Fit (C57BL/6 Sperm; 0.1 mM)	IVF Fit (C57BL/6 Sperm; 20 mM)	Average Post Thaw Motility (C57BL/6 Sperm; C57BL/6 sperm frozen in CPM containing 0.1 mM free radical scavenger) [%]	Average Post Thaw Motility (C57BL/6 Sperm; C57BL/6 sperm frozen in CPM containing 20 mM free radical scavenger) [%]
N[C@@H](CCC(=O)N[C@@H](CS)C(=O)NCC(=O)O)C(=O)O [GSH, reduced glutathione]	limited the level of ROS	yes	yes	yes	no	32	25.3	41.67	0.6	–	–	–	–	–	–	–
OCC(O)CS (stereo not shown) [MTG, monothioglycerol]	limited the level of ROS	–	–	–	–	–	–	–	–	reduces the ROS	yes	16	–	–	–	–
O[C@H](CS)[C@H](O)CS (racemic) [DTT, dithiothreitol]	limited the level of ROS	–	yes	yes	–	–	34	17.6	–	–	–	–	yes	no	24.6	1.6
